{"source": "patent US20250230193A1", "about": "“CYCLIC COMPOUND HAVING SELECTIVE KRAS INHIBITORY EFFECT ON HRAS AND NRAS” (CHUGAI SEIYAKU KABUSHIKI KAISHA, priority 2022, published 2025)", "key": {"[1]": {"biological_target": "GDP-bound NRAS wild-type protein (Homo sapiens, UniProt P01111)", "sequence (P01111 whole entry)": "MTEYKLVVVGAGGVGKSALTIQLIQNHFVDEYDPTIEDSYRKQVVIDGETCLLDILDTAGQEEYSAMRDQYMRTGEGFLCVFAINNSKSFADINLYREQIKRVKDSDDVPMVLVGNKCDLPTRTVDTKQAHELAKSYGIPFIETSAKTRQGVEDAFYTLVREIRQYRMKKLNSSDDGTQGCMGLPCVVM", "assay": "Binding to NRAS by surface plasmon resonance (SPR), Single Cycle Kinetics", "details": "SPR"}, "[2]": {"biological_target": "GDP-bound HRAS wild-type protein (Homo sapiens, UniProt P01112)", "sequence (P01112 whole entry)": "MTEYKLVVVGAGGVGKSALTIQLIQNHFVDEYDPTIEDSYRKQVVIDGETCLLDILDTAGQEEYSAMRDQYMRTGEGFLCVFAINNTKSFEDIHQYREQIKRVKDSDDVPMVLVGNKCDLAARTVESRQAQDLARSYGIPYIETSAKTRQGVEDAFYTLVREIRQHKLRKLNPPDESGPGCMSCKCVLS", "assay": "Binding to HRAS by surface plasmon resonance (SPR), Single Cycle Kinetics", "details": "SPR"}, "[3]": {"details": "KD ratio, GDP-bound NRAS wild-type vs GDP-bound KRAS wild-type"}, "[4]": {"details": "KD ratio, GDP-bound HRAS wild-type vs GDP-bound KRAS wild-type"}}, "note": "Where a SMILES comes first, the peptide text is derived from it. Bridges are numbered along the chain shown (N, C = ends). [ ]: non-standard residue; d: D form. The star is where a group is joined. hPhe(3-Cl-4-CF3) = N[C@@H](CCc1ccc(C(F)(F)F)c(Cl)c1)C(=O)O; NPrPhe(4-CF3) = CCCN[C@@H](Cc1ccc(C(F)(F)F)cc1)C(=O)O; NEtPhe(4-F) = CCN[C@@H](Cc1ccc(F)cc1)C(=O)O; Abu(4,4,4-F3) = N[C@@H](CC(F)(F)F)C(=O)O; NMeGly(cPent) = CN[C@H](C(=O)O)C1CCCC1; NMeD = CN[C@@H](CC(=O)O)C(=O)O; NMeL = CN[C@@H](CC(C)C)C(=O)O; Morpholide = C1CN(*)CCO1; NMeA = CN[C@@H](C)C(=O)O; Ac5c = NC1(C(=O)O)CCCC1; Aze = O=C(O)[C@@H]1CCN1; Sar = CNCC(=O)O", "data": [{"smiles": "CCO[C@@H]1C[C@H]2C(=O)NC3(CC(C)(C)C3)C(=O)N(C)[C@@H](C3CCCC3)C(=O)N(C)[C@H](C(=O)N(C)C)CC(=O)N(C)[C@@H](CC(C)C)C(=O)N[C@@H]([C@@H](C)CC)C(=O)N(C3CC3)CC(=O)N(C)[C@H]3C/C=C\\CCN(C3=O)[C@@H](Cc3ccc(C)cc3)C(=O)N(C)CC(=O)N[C@@H](CCc3cc(F)c(C(F)(F)F)c(F)c3)C(=O)N2C1", "note": "[PP2109]", "values": [{"measurement": "NRAS/KRAS (ratio of KD value with respect to NRAS to KD value with respect to KRAS)", "setting": "[1]; GDP-bound NRAS wild-type vs GDP-bound KRAS wild-type", "value": "A (a compound having 10 or more and less than 20 is denoted as A)"}, {"measurement": "HRAS/KRAS (ratio of KD value with respect to HRAS to KD value with respect to KRAS)", "setting": "[2]; GDP-bound HRAS wild-type vs GDP-bound KRAS wild-type", "value": "A (a compound having 10 or more and less than 20 is denoted as A)"}]}, {"smiles": "CCCN1C(=O)[C@@H]2CCN2C(=O)[C@H](C)N(C)C(=O)[C@H](CC(F)(F)F)NC(=O)[C@H](CC(C)C)N(C)C(=O)C[C@@H](C(=O)N2CCOCC2)N(C)C(=O)[C@H](C2CCCC2)N(C)C(=O)C2(CCCC2)NC(=O)[C@@H]2CCCN2C(=O)[C@H](CCc2ccc(C(F)(F)F)c(Cl)c2)NC(=O)CN(C)C(=O)[C@@H]1Cc1ccc(C(F)(F)F)cc1", "note": "[PP0270] ([NMeL][Abu(4,4,4-F3)][NMeA][Aze][NPrPhe(4-CF3)][Sar][hPhe(3-Cl-4-CF3)]P[Ac5c][NMeGly(cPent)][NMeD]-Morpholide; lactam N-11)", "values": [{"measurement": "NRAS/KRAS (ratio of KD for GDP-bound NRAS wild-type to KD for KRAS)", "setting": "[1]; KD ratio NRAS/KRAS", "value": "C (A compound having a KD ratio of 0.1 or more and less than 3 is denoted as C)"}, {"measurement": "HRAS/KRAS (ratio of KD for GDP-bound HRAS wild-type to KD for KRAS)", "setting": "[2]; KD ratio HRAS/KRAS", "value": "B (a compound having 3 or more and less than 10 is denoted as B)"}]}, {"smiles": "CC[C@H](C)[C@@H]1NC(=O)[C@H](CC(C)C)N(C)C(=O)C[C@@H](C(=O)N(C)C)N(C)C(=O)[C@H](C2CCCC2)N(C)C(=O)C2(CCC2)NC(=O)[C@@H]2CCCN2C(=O)[C@H](CCc2cc(F)c(C(F)(F)F)c(F)c2)NC(=O)CN(C)C(=O)[C@H](Cc2ccc(C(F)(F)F)cc2)N2CCCCC[C@@H](C2=O)N(C)C(=O)CN(C)C1=O", "note": "[PP0512]", "values": [{"measurement": "NRAS/KRAS (ratio of KD value with respect to GDP-bound NRAS wild-type protein to KD value with respect to KRAS)", "setting": "[1]; KD ratio NRAS/KRAS", "value": "B (a compound having 3 or more and less than 10 is denoted as B)"}, {"measurement": "HRAS/KRAS (ratio of KD value with respect to GDP-bound HRAS wild-type protein to KD value with respect to KRAS)", "setting": "[2]; KD ratio HRAS/KRAS", "value": "B (a compound having 3 or more and less than 10 is denoted as B)"}]}, {"smiles": "CC[C@H](C)[C@@H]1NC(=O)[C@H](CC(C)C)N(C)C(=O)C[C@@H](C(=O)N2CCOCC2)N(C)C(=O)[C@H](C2CCCC2)N(C)C(=O)C2(CCCC2)NC(=O)[C@@H]2CCCN2C(=O)[C@H](CCc2ccc(C(F)(F)F)c(Cl)c2)NC(=O)CN(C)C(=O)[C@H](Cc2ccc(F)cc2)N(CC)C(=O)CN(C)C(=O)CN(C)C1=O", "note": "[PP0213] ([NMeL]I[Sar][Sar][NEtPhe(4-F)][Sar][hPhe(3-Cl-4-CF3)]P[Ac5c][NMeGly(cPent)][NMeD]-Morpholide; lactam N-11)", "values": [{"measurement": "NRAS/KRAS (ratio of KD for GDP-bound NRAS wild-type to KD for KRAS)", "setting": "[1]; KD ratio NRAS/KRAS", "value": "C (A compound having a KD ratio of 0.1 or more and less than 3 is denoted as C)"}, {"measurement": "HRAS/KRAS (ratio of KD for GDP-bound HRAS wild-type to KD for KRAS)", "setting": "[2]; KD ratio HRAS/KRAS", "value": "C (A compound having a KD ratio of 0.1 or more and less than 3 is denoted as C)"}]}, {"smiles": "CCO[C@@H]1C[C@H]2C(=O)NC3(CCCC3)C(=O)N(C)[C@@H](C3CCCC3)C(=O)N(C)[C@H](C(=O)N3CCOCC3)CC(=O)N(C)[C@@H](COC)C(=O)N[C@@H]([C@@H](C)CC)C(=O)NCC(=O)N(C)[C@H]3CCCCCN(C3=O)[C@@H](Cc3ccc(C(F)(F)F)cc3)C(=O)N(C)CC(=O)N[C@@H](CCc3cc(F)c(C(F)(F)F)c(F)c3)C(=O)N2C1", "note": "[PP0862]", "values": [{"measurement": "NRAS/KRAS (ratio of KD value with respect to NRAS to KD value with respect to KRAS)", "setting": "[1]; [3]", "value": "B (a compound having 3 or more and less than 10 is denoted as B)"}, {"measurement": "HRAS/KRAS (ratio of KD value with respect to HRAS to KD value with respect to KRAS)", "setting": "[2]; [4]", "value": "B (a compound having 3 or more and less than 10 is denoted as B)"}]}, {"smiles": "CCO[C@@H]1C[C@H]2C(=O)NC3(CCC3)C(=O)N(C)[C@@H](C3CCCC3)C(=O)N(C)[C@H](C(=O)N(C)C)CC(=O)N(C)[C@@H](CC3CC3)C(=O)N[C@@H]([C@@H](C)CC)C(=O)N(C)CC(=O)N(C)[C@H]3C/C=C\\CCN(C3=O)[C@@H](Cc3ccc(C(F)(F)F)cc3)C(=O)N(C)CC(=O)N[C@@H](CCc3cc(F)c(C(F)(F)F)c(F)c3)C(=O)N2C1", "note": "[PP1111]", "values": [{"measurement": "NRAS/KRAS (ratio of KD value with respect to NRAS to KD value with respect to KRAS)", "setting": "[1]; [3]", "value": "A (a compound having 10 or more and less than 20 is denoted as A)"}, {"measurement": "HRAS/KRAS (ratio of KD value with respect to HRAS to KD value with respect to KRAS)", "setting": "[2]; [4]", "value": "A (a compound having 10 or more and less than 20 is denoted as A)"}]}, {"smiles": "CC[C@H](C)[C@@H]1NC(=O)[C@H](CC(C)C)N(C)C(=O)C[C@@H](C(=O)N(C)C)N(C)C(=O)[C@H](C2CCCC2)N(C)C(=O)C2(CC(C)(C)C2)NC(=O)CN(C)C(=O)[C@H](CCc2cc(F)c(C(F)(F)F)c(F)c2)NC(=O)CN(C)C(=O)[C@H](Cc2ccc(C(F)(F)F)cc2)N2CC/C=C\\C[C@@H](C2=O)N(C)C(=O)CN(C)C1=O", "note": "[PP1776]", "values": [{"measurement": "NRAS/KRAS (ratio of KD value for NRAS to KD value for KRAS)", "setting": "[1]; [3]", "value": "A (a compound having 10 or more and less than 20 is denoted as A)"}, {"measurement": "HRAS/KRAS (ratio of KD value for HRAS to KD value for KRAS)", "setting": "[2]; [4]", "value": "A (a compound having 10 or more and less than 20 is denoted as A)"}]}]}
